Consider 18 molecules from patent EP4800015A1, “AZABICYCLO DERIVATIVE AND PREPARATION METHOD THEREFOR, AND USE” (Zhejiang Hisun Pharmaceutical Co., Ltd., priority 2023, dated 2025).

In this assay the target is T1, recombinant human WRN (Homo sapiens, UniProt Q14191).
T1 construct: purchased BPS 101264
T1 sequence (Q14191 whole entry): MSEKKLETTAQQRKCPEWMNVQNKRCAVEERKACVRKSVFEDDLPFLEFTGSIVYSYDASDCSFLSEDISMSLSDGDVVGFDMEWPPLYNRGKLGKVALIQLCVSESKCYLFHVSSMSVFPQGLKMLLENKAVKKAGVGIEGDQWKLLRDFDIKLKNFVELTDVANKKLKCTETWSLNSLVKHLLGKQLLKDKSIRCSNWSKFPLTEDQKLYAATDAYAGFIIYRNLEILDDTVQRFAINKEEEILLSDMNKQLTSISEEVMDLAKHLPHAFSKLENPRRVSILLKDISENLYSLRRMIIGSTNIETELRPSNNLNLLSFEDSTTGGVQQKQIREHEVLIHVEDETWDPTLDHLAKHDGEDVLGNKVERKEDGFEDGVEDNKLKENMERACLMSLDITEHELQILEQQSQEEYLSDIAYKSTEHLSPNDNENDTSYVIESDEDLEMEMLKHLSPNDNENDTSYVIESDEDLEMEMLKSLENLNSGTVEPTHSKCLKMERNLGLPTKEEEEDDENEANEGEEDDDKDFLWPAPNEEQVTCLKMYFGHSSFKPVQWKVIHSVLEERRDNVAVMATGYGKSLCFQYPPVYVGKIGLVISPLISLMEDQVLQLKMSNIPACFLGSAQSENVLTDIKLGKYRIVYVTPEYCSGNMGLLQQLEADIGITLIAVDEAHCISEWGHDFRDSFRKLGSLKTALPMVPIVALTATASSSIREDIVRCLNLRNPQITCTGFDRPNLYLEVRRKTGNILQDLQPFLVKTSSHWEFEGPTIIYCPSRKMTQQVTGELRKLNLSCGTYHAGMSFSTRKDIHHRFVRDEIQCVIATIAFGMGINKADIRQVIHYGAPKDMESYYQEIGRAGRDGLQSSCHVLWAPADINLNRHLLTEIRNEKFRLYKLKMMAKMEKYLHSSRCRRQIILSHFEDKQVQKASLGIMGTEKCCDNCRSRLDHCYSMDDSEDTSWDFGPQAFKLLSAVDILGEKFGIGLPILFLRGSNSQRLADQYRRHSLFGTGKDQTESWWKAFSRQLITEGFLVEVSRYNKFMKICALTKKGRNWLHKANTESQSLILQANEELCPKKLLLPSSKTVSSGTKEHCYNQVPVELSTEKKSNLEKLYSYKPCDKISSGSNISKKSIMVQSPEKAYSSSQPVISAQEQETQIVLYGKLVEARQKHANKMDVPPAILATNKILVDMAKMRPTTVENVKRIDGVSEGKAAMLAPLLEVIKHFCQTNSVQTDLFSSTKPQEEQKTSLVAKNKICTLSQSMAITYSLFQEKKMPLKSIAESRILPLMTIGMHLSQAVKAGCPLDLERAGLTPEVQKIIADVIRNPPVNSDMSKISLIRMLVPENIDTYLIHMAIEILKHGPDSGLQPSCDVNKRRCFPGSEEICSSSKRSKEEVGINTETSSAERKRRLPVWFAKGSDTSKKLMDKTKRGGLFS
Description: Inhibition of WRN enzyme activity (ATPase), ADP-Glo Kinase Assay. Type of assay: biochemical. To be noted: WRN protein 5 nM, Flap 0.1 nM, ATP 30 µM; read-out: IC50. The text has this:
The following method was used to determine the degree of inhibition of recombinant human WRN ATPase activity by the compounds of the present disclosure in vitro. In this method, ADP-Glo™ Kinase Assay kit (catalog No. V9102) from Promega was used. Detailed experimental procedures can be found in the kit manual.
The experimental procedure was briefly described as follows: test compounds were first dissolved in DMSO to prepare stock solutions, followed by serial dilution using reaction buffer (30 mM Tris, pH 7.5, 2 mM MgCl2, 50 mM NaCl, 0.02% BSA, 0.1% Pluronic F127), with final concentrations of test compounds in the reaction system ranging from 1000 nM to 0.004 nM; WRN protein (purchased from BPS, catalog No. 101264), substrate 5-flap oligonucleotide (Flap26) (synthesized by Shanghai Generay Biotech Co., Ltd., sequence 5'-[…]-3'), and ATP working solution (from ADP-Glo™ Kinase Assay kit component V915A) were prepared using reaction buffer. Reactions were performed in 384-well microplates. At first the compounds and recombinant human WRN protein (final concentration 5 nM) were added to the wells and the plate was incubated at room temperature for 15 minutes, then Flap solution (final concentration 0.1 nM) and ATP solution (final concentration 30 µM) were added to the reaction solution and the plate was incubated at room temperature for 10 minutes. Subsequently, 5 µL of ADP-Glo Reagent was added to the reaction system and incubated at room temperature for 40 minutes. Then 10 µL of Kinase Detection Reagent was added to the reaction system and incubated at room temperature for 30 minutes. After the incubation was completed, chemiluminescence intensity values of each well were measured using a microplate reader in luminescence mode. The percentage inhibition of the compounds at each concentration was calculated by comparison with the luminescence intensity values of the control group (0.1% DMSO), and IC50 values of compounds were obtained by nonlinear regression analysis of compound concentration logarithm-inhibition rate using GraphPad Prism 9 software, as shown in Table 1.
The IC50 value results of the compounds of the present disclosure are expressed as AA and A, respectively as follows: "AA" indicates IC50 ≤ 1 nM; "A" indicates 1 nM < IC50 ≤ 100 nM. Table 1 IC50 of the compounds of the present disclosure for inhibiting WRN enzyme activity (ATPase)
Take `CCc1c(N2CCN(C(=O)c3ncnc(C)c3O)CC2)c(=O)n2nc(N3CCCOCC3)nc2n1CC(=O)Nc1ccc(C(F)(F)F)cc1Cl` [Example 1, N-(2-chloro-4-(trifluoromethyl)phenyl)-2-(5-ethyl-6-(4-(5-hydroxy-6-methylpyrimidine-4-carbonyl)piperazin-1-yl)-2-(1,4-oxazepan-4-yl)-7-oxo-[1,2,4]triazolo[1,5-a]pyrimidin-4(7H)-yl)acetamide]: the IC50 lay in the range of 1 to 100 nM.

Consider `CCc1c(N2CCN(C(=O)c3ncnc(C)c3O)CC2)c(=O)n2nc(C3CCCC3)nc2n1CC(=O)Nc1ccc(C(F)(F)F)cc1Cl` [Example 2, N-(2-Chloro-4-(trifluoromethyl)phenyl)-2-(2-cyclopentyl-5-ethyl-6-(4-(5-hydroxy-6-methylpyrimidine-4-carbonyl)piperazin-1-yl)-7-oxo-[1,2,4]triazolo[1,5-a]pyrimidin-4(7H)-yl)acetamide], for which the IC50 was in the range of 1 to 100 nM.

As to `CCc1c(N2CCN(C(=O)c3ncnc(C)c3O)CC2)c(=O)n2nc(N3CCCCCC3)nc2n1CC(=O)Nc1ccc(C(F)(F)F)cc1Cl` [Example 3, 2-(2-(Azepan-1-yl)-5-ethyl-6-(4-(5-hydroxy-6-methylpyrimidine-4-carbonyl)piperazin-1-yl)-7-oxo-[1,2,4]triazolo[1,5-a]pyrimidin-4(7H)-yl)-N-(2-chloro-4-(trifluoromethyl)phenyl)acetamide], the half-inhibitory concentration (IC50) is 1 to 100 nM.

Regarding `CCc1c(N2CCN(C(=O)c3ncnc(C)c3O)CC2)c(=O)n2nc(C3CCCCCC3)nc2n1CC(=O)Nc1ccc(C(F)(F)F)cc1Cl` [Example 4, N-(2-chloro-4-(trifluoromethyl)phenyl)-2-(2-cycloheptyl-5-ethyl-6-(4-(5-hydroxy-6-methylpyrimidine-4-carbonyl)piperazin-1-yl)-7-oxo-[1,2,4]triazolo[1,5-a]pyrimidin-4(7H)-yl)acetamide], the concentration for half-maximal inhibition (IC50) was in the range of 1 to 100 nM.

On to `CCc1c(N2CCN(C(=O)c3ncnc(C)c3O)CC2)c(=O)n2nc(C(C)C)nc2n1CC(=O)Nc1ccc(C(F)(F)F)cc1Cl` [Example 5, N-(2-chloro-4-(trifluoromethyl)phenyl)-2-(5-ethyl-6-(4-(5-hydroxy-6-methylpyrimidine-4-carbonyl)piperazin-1-yl)-2-isopropyl-7-oxo-[1,2,4]triazolo[1,5-a]pyrimidin-4(7H)-yl)acetamide], for which the half-maximal inhibitory concentration (IC50) fell in the range of 1 to 100 nM.

For the molecule `CCc1c(N2CCN(C(=O)c3ncnc(C)c3O)CC2)c(=O)n2nc(N3CCC3)nc2n1CC(=O)Nc1ccc(C(F)(F)F)cc1Cl` [Example 7, 2-(2-(azetidin-1-yl)-5-ethyl-6-(4-(5-hydroxy-6-methylpyrimidine-4-carbonyl)piperazin-1-yl)-7-oxo-[1,2,4]triazolo[1,5-a]pyrimidin-4(7H)-yl)-N-(2-chloro-4-(trifluoromethyl)phenyl)acetamide], the concentration for half-maximal inhibition (IC50) is 1 to 100 nM.

Consider `CCc1c(N2CCN(C(=O)c3ncnc(C)c3O)CC2)c(=O)n2nc(N3CC4(CCOCC4)C3)nc2n1CC(=O)Nc1ccc(C(F)(F)F)cc1Cl` [Example 8, N-(2-chloro-4-(trifluoromethyl)phenyl)-2-(5-ethyl-6-(4-(5-hydroxy-6-methylpyrimidine-4-carbonyl)piperazin-1-yl)-7-oxo-2-(7-oxa-2-azaspiro[3.5]nonan-2-yl)-[1,2,4]triazolo[1,5-a]pyrimidin-4(7 H)-yl)acetamide], for which the IC50 fell in the range of 1 to 100 nM.

For `CCc1c(N2CCN(C(=O)c3ccncc3O)CC2)c(=O)n2nc(C3=CCCCCC3)nc2n1CC(=O)Nc1ccc(C(F)(F)F)cc1Cl` [Example 9, N-(2-chloro-4-(trifluoromethyl)phenyl)-2-(2-(cyclohept-1-en-1-yl)-5-ethyl-6-(4-(3-hydroxyisonic otinoyl)piperazin-1-yl)-7-oxo-[1,2,4]triazolo[1,5-a]pyrimidin-4(7H)-yl)acetamide], the IC50 was under 1 nM.

As to `CCc1c(N2CCN(C(=O)c3ccccc3O)CC2)c(=O)n2nc(C3=CCCCCC3)nc2n1CC(=O)Nc1ccc(C(F)(F)F)cc1Cl` [Example 10, N-(2-chloro-4-(trifluoromethyl)phenyl)-2-(2-(cyclohept-1-en-1-yl)-5-ethyl-6-(4-(2-hydroxybenzoyl)piperazin-1-yl)-7-oxo-[1,2,4]triazolo[1,5-a]pyrimidin-4(7H)-yl)acetamide], the IC50 lay within 1 to 100 nM.

As to `CCc1c(N2CCN(C(=O)c3cccc(C)c3O)CC2)c(=O)n2nc(C3=CCCCCC3)nc2n1CC(=O)Nc1ccc(C(F)(F)F)cc1Cl` [Example 11, N-(2-Chloro-4-(trifluoromethyl)phenyl)-2-(2-(cyclohept-1-en-1-yl)-5-ethyl-6-(4-(2-hydroxy-3-methylbenzoyl)piperazin-1-yl)-7-oxo-[1,2,4]triazolo[1,5-a]pyrimidin-4(7H)-yl)acetamide], the 50% inhibitory concentration (IC50) lay within 1 to 100 nM.

Regarding `CCc1c(N2CCN(C(=O)c3ncnc(C)c3O)CC2)c(=O)n2nc(C3CCCCC3)nc2n1CC(=O)Nc1ccc(C(F)(F)F)cc1Cl` [Example 12, N-(2-Chloro-4-(trifluoromethyl)phenyl)-2-(2-cyclohexyl-5-ethyl-6-(4-(5-hydroxy-6-methylpyrimidine-4-carbonyl)piperazin-1-yl)-7-oxo-[1,2,4]triazolo[1,5-a]pyrimidin-4(7H)-yl)acetamide], the half-maximal inhibitory concentration (IC50) lay within 1 to 100 nM.

As for `CCc1c(N2CCN(C(=O)c3ncnc(C)c3O)CC2)c(=O)n2nc(N3CCC4(CCNC4=O)CC3)nc2n1CC(=O)Nc1ccc(C(F)(F)F)cc1Cl` [Example 13, N-(2-chloro-4-(trifluoromethyl)phenyl)-2-(5-ethyl-6-(4-(5-hydroxy-6-methylpyrimidine-4-carbonyl)piperazin-1-yl)-7-oxo-2-(1-oxo-2,8-diazaspiro[4.5]decan-8-yl)-[1,2,4]triazolo[1,5-a]pyrimidin-4(7H)-yl)acetamide], the 50% inhibitory concentration (IC50) was in the range of 1 to 100 nM.

In the case of `CCc1c(N2CCN(C(=O)c3ccncc3O)CC2)c(=O)n2nc(C3=CC4CC(=O)CC4C3)nc2n1CC(=O)Nc1ccc(C(F)(F)F)cc1Cl` (stereo not drawn) [Example 14, N-(2-chloro-4-(trifluoromethyl)phenyl)-2-(5-ethyl-6-(4-(3-hydroxyisonicotinoyl)piperazin-1-yl)-7-oxo-2-(5-oxo-1,3a,4,5,6,6a-hexahydropentalen-2-yl)-[1,2,4]triazolo[1,5-a]pyrimidin-4(7H)-yl)a cetamide], the IC50 was 1 to 100 nM.

With `CCc1c(N2CCN(C(=O)c3ncnc(C)c3O)CC2)c(=O)n2nc(NCCCCl)nc2n1CC(=O)Nc1ccc(C(F)(F)F)cc1Cl` [Example 15, N-(2-chloro-4-(trifluoromethyl)phenyl)-2-(2-((3-chloropropyl)amino)-5-ethyl-6-(4-(5-hydroxy-6-methylpyrimidine-4-carbonyl)piperazin-1-yl)-7-oxo-[1,2,4]triazolo[1,5-a]pyrimidin-4(7H)-yl)ace tamide], the 50% inhibitory concentration (IC50) lay within 1 to 100 nM.

Regarding `CCc1c(N2CCN(C(=O)c3ncnc(C)c3O)CC2)c(=O)n2nc(N3CC4(COC4)C3)nc2n1CC(=O)Nc1ccc(C(F)(F)F)cc1Cl` [Example 16, N-(2-chloro-4-(trifluoromethyl)phenyl)-2-(5-ethyl-6-(4-(5-hydroxy-6-methylpyrimidine-4-carbonyl)piperazin-1-yl)-7-oxo-2-(2-oxa-6-azaspiro[3.3]heptan-6-yl)-[1,2,4]triazolo[1,5-a]pyrimidin-4(7H)-yl)acetamide], the 50% inhibitory concentration (IC50) was in the range of 1 to 100 nM.

Take `CCc1c(N2CCN(C(=O)c3ncnc(C)c3O)CC2)c(=O)n2nc(C=C3CCCCC3)nc2n1CC(=O)Nc1ccc(C(F)(F)F)cc1Cl` [Example 20, N-(2-chloro-4-(trifluoromethyl)phenyl)-2-(2-(cyclohexylidenemethyl)-5-ethyl-6-(4-(5-hydroxy-6-methylpyrimidine-4-carbonyl)piperazin-1-yl)-7-oxo-[1,2,4]triazolo[1,5-a]pyrimidin-4(7H)-yl)ac etamide]: the IC50 was 1 to 100 nM.

On to `CCc1c(N2CCN(C(=O)c3ncnc(C)c3O)CC2)c(=O)n2nc(C=C3CCOCC3)nc2n1CC(=O)Nc1ccc(C(F)(F)F)cc1Cl` [Example 21, N-(2-chloro-4-(trifluoromethyl)phenyl)-2-(5-ethyl-6-(4-(5-hydroxy-6-methylpyrimidine-4-carbonyl)piperazin-1-yl)-7-oxo-2-((tetrahydro-4H-pyran-4-ylidene)methyl)-[1,2,4]triazolo[1,5-a]pyrimidin-4(7H)-yl)acetamide], for which the half-inhibitory concentration (IC50) was in the range of 1 to 100 nM.

With `CCc1c(N2CCN(C(=O)c3ncnc(C)c3O)CC2)c(=O)n2nc(C3=CC4CCC3C4)nc2n1CC(=O)Nc1ccc(C(F)(F)F)cc1Cl` (stereo not drawn) [Example 23, 2-(2-(bicyclo[2.2.1]hept-2-en-2-yl)-5-ethyl-6-(4-(5-hydroxy-6-methylpyrimidine-4-carbonyl)piperazin-1-yl)-7-oxo-[1,2,4]triazolo[1,5-a]pyrimidin-4(7H)-yl)-N-(2-chloro-4-(trifluoromethyl)phenyl)acetamide], the concentration for half-maximal inhibition (IC50) was in the range of 1 to 100 nM.
